Values after ≈ are worked out from the molar mass of the structure shown.
Legend:
[1] = test system: Staphylococcus aureus ATCC 33591 (DRCC 019, MRSA); test: MIC by broth microdilution, Staphylococcus aureus 019 MRSA; assay type: cell-based; settings: Staphylococcus aureus DRCC 019 (ATCC 33591), read-out: Antimicrobial Screening (MIC) Staphylococcus aureus 019 MRSA
Experimental: (§1) Minimum Inhibiton Concentrations (MICs) were determined by broth microdilution technique as per the guidelines prescribed in the fifth edition of Approved Standards, NCCLS document M7-A5 Vol 20-No 2, 2000 Villinova, Pa.
(§2) Initial stock solution of the test compound was prepared in DMSO. Subsequent two fold dilutions were carried out in sterile Mueller Hinton Broth (Difco) (MHB).
(§3) Frozen cultures stocks were inoculated into 50 ml sterile MHB in 250 ml Erlyn Meyer flasks. • Composition of MHB is as follows: • Beef Extract Powder—2.0 grams/litre • Acid Digest of Casein—17.5 grams/litre • Soluble Starch—1.5 grams/litre • Final pH 7.3±0.1
(§4) Flasks were incubated for 4 to 5 hours at 35° C. on a rotary shaker at 150 rpm. Inoculum was prepared by diluting the culture in sterile MHB to obtain a turbidity of 0.5 McFarland standard. This corresponds to 1-2×10^8 CFU/ml. The stock was further diluted in sterile broth to obtain 1-2×10^6 CFU/ml. 50 μl of the above diluted inoculum was added from 1-10 wells. The plates were incubated overnight at 37° C.

[2] = test system: Staphylococcus aureus ATCC 49951 (DRCC 213, Smith S); test: MIC by broth microdilution, Staphylococcus aureus 213 Smith S; assay type: cell-based; settings: ATCC49951, Staphylococcus aureus DRCC 213 (ATCC 49951), read-out: Antimicrobial Screening (MIC) Staphylococcus aureus 213 Smith S
Experimental: as §1, §2, §3, §4

[3] = test system: Staphylococcus aureus ATCC 29213 (DRCC 035, S); test: MIC by broth microdilution, Staphylococcus aureus 035 S; assay type: cell-based; settings: ATCC29213, Staphylococcus aureus DRCC 035 (ATCC 29213), read-out: Antimicrobial Screening (MIC) Staphylococcus aureus 035 S
Experimental: as §1, §2, §3, §4

[4] = test system: Enterococcus faecalis ATCC 29212 (DRCC 034, S); test: MIC by broth microdilution, Enterococcus sp 034 S; assay type: cell-based; settings: ATCC29212, Enterococcus DRCC 034 (E. faecalis ATCC 29212), read-out: Antimicrobial Screening (MIC) Enterococcus sp 034 S
Experimental: as §1, §2, §3, §4

[5] = test system: Enterococcus faecalis NCTC 12201 (DRCC 153, R); test: MIC by broth microdilution, Enterococcus sp 153 R; assay type: cell-based; settings: NCTC12201, Enterococcus DRCC 153 (E. faecalis NCTC 12201), read-out: Antimicrobial Screening (MIC) Enterococcus sp 153 R
Experimental: as §1, §2, §3, §4

[6] = test system: Enterococcus faecium NCTC 12202 (DRCC 154, R); test: MIC by broth microdilution, Enterococcus sp 154 R; assay type: cell-based; settings: NCTC12202, Enterococcus DRCC 154 (E. faecium NCTC 12202), read-out: Antimicrobial Screening (MIC) Enterococcus sp 154 R
Experimental: as §1, §2, §3, §4

Mycobacterium MTCC006 = test: MIC by broth microdilution, Mycobacterium MTCC006; assay type: cell-based; settings: read-out: Antimicrobial Screening (MIC) Mycobacterium MTCC006
Experimental: as §1, §2, §3, §4

Salmonella TA97 = test: MIC by broth microdilution, Salmonella TA97; assay type: cell-based; settings: read-out: Antimicrobial Screening (MIC) Salmonella TA97
Experimental: as §1, §2, §3, §4

| SMILES | melting point | MIC [1] | MIC [2] | MIC [3] | MIC [4] | MIC [5] | MIC [6] | MIC (Mycobacterium MTCC006) | MIC (Salmonella TA97) |
| --- | --- | --- | --- | --- | --- | --- | --- | --- | --- |
| COC(=S)NCc1cn(-c2ccc(-n3cccc3)cc2)nn1 [Example 1, [1-(4-Pyrrol-1-yl-phenyl)-1H-[1,2,3]triazol-4-ylmethyl]-thiocarbamic acid O-methyl ester] | 150 °C | – | – | – | – | – | – | – | – |
| COC(=S)NCc1cn(-c2ccc(-n3ccc(C=O)c3)cc2)nn1 [Example 2, {1-[4-(3-Formyl-pyrrol-1-yl)-phenyl]-1H-[1,2,3]triazol-4-ylmethyl}-thiocarbamic acid O methyl ester] | 160 to 162 °C | – | – | – | – | – | – | – | – |
| COC(=S)NCc1cn(-c2cc(F)c(-n3ccc(C#N)c3)c(F)c2)nn1 [Example 8, {1-[4-(3-Cyano-pyrrol-1-yl)-3,5-difluoro-phenyl]-1H-[1,2,3]triazol-4-ylmethyl}-thiocarbamic acid O-methyl ester] | – | 0.5 µg/mL (≈ 1.34 µM) | 0.5 µg/mL (≈ 1.34 µM) | 1 µg/mL (≈ 2.67 µM) | 0.5 µg/mL (≈ 1.34 µM) | 0.5 µg/mL (≈ 1.34 µM) | 0.5 µg/mL (≈ 1.34 µM) | 32 µg/mL (≈ 85.5 µM) | 32 µg/mL (≈ 85.5 µM) |
| COC(=S)NCc1cn(-c2cc(F)c(-n3ccnc3)c(F)c2)nn1 [Example 9, [1-(3,5-Difluoro-4-imidazol-1-yl-phenyl)-1H-[1,2,3]triazol-4-ylmethyl]-thiocarbamic acid O-methyl ester] | 180 °C | 1 µg/mL (≈ 2.85 µM) | 1 µg/mL (≈ 2.85 µM) | 1 µg/mL (≈ 2.85 µM) | 2 µg/mL (≈ 5.71 µM) | 1 µg/mL (≈ 2.85 µM) | 2 µg/mL (≈ 5.71 µM) | 4 µg/mL (≈ 11.4 µM) | 32 µg/mL (≈ 91.3 µM) |
| COC(=S)NCc1cn(-c2ccc(-n3ccnc3)c(F)c2)nn1 [Example 10, [1-(3-Fluoro-4-imidazol-1-yl-phenyl)-1H-[1,2,3]triazol-4-ylmethyl]-thiocarbamic acid O-methyl ester] | 165 to 167 °C | – | – | – | – | – | – | – | – |
| COC(=S)NCc1cn(-c2ccc(-n3cncn3)c(F)c2)nn1 [Example 20, [1-(3-Fluoro-4-[1,2,4]triazol-1-yl-phenyl)-1H-[1,2,3]triazol-4-yl-methyl]-thiocarbamic acid O-methyl ester] | 179 °C | 8 µg/mL (≈ 24 µM) | 16 µg/mL (≈ 48 µM) | 16 µg/mL (≈ 48 µM) | 32 µg/mL (≈ 96 µM) | 32 µg/mL (≈ 96 µM) | 32 µg/mL (≈ 96 µM) | 16 µg/mL (≈ 48 µM) | 32 µg/mL (≈ 96 µM) |
| CC(=O)NCc1cn(-c2ccc(-n3cccc3)c(F)c2)nn1 [Example 22, N-[1-(3-Fluoro-4-pyrrol-1-yl-phenyl)-1H-[1,2,3]triazol-4-ylmethyl]-acetamide] | 210 to 215 °C | – | – | – | – | – | – | – | – |
| CC(=S)NCc1cn(-c2ccc(-n3ccnc3)c(F)c2)nn1 [Example 24, N-[1-(3-Fluoro-4-imidazol-1-yl-phenyl)-1H-[1,2,3]triazol-4-ylmethyl]-thioacetamide] | 185 °C | – | – | – | – | – | – | – | – |
| CC(=O)NCc1cn(-c2ccc(-n3cncn3)c(F)c2)nn1 [Example 25, N-[1-(3-Fluoro-4-[1,2,4]triazol-1-yl-phenyl)-1H-[1,2,3]triazol-4-ylmethyl]-acetamide] | 223 °C | – | – | – | – | – | – | – | – |
| COC(=S)NCc1cn(-c2ccc(-n3cnc(CO)c3)c(F)c2)nn1 [Example 27, {1-[3-Fluoro-4-(4-hydroxymethyl-imidazol-1-yl)-phenyl]-1H-[1,2,3]triazol-4-ylmethyl}-thiocarbamic acid O-methyl ester] | 179 °C | 1 µg/mL (≈ 2.76 µM) | 1 µg/mL (≈ 2.76 µM) | 1 µg/mL (≈ 2.76 µM) | 2 µg/mL (≈ 5.52 µM) | 1 µg/mL (≈ 2.76 µM) | 2 µg/mL (≈ 5.52 µM) | 16 µg/mL (≈ 44.2 µM) | 32 µg/mL (≈ 88.3 µM) |

— patent publication US20060270628A1, “Antiinfective 1,2,3-triazole derivatives, process for their preparation and pharmaceutical compositions containing them” (priority 2003, published 2006)
